Reference: US20260216057A1, “PHARMACEUTICAL COMPOSITIONS FOR HERPES VIRUS” (priority 2022, published 2026)

What was measured:
[1] = Example 7: Compound 1 aqueous suspension SC PK study in dog; assay type: in vivo, male non-naïve Beagle dogs; conditions: aqueous suspension (Form A), 10 mg/kg
Description: The LC-MS methodology and conditions used to analyse the helicase-primase inhibitor Compound 1 in plasma samples from the sub-cutaneous injection PK studies (Examples 7 and 10-12) are described in Table 3 and Table 4. An aqueous suspension of crystalline Compound 1 (Form A) was prepared in a 0.9% NaCl+0.5% poloxamer 188 vehicle at a concentration of 5.0 mg/mL as described in Example 4. The suspension was then dosed to male non-naïve beagle dogs at 10 mg/kg according to the Example 4 animal dosing method.

[2] = Example 17: Compound 1 (Form C) microsuspension and nanosuspension SC and IM PK study in rat; assay type: in vivo, male Sprague Dawley rats; conditions: for prolonged exposure for (length of the study): 20 mg/animal (~80 mg/kg), micro- and nano-suspensions (Form C), both formulations
Description: The LC-MS methodology and conditions used to analyse Compound 1 in rat plasma samples from the PK study described in Example 17 are given in Table 10.
An aqueous microsuspension of crystalline Compound 1 free form (crystalline Form C) in a 20 mg/mL PVP K30, 10 mg/mL poloxamer 188 and 50 mg/mL mannitol vehicle at a concentration of 200 mg/mL was prepared as follows: • 1) Crystalline Compound 1 (Form C) was jet milled to obtain microparticles (Dv90<10 μm). • 2) Jet milled material was dispersed in 20 mg/ml PVP K30+10 mg/ml Poloxamer 188+50 mg/ml mannitol to obtain a homogeneous suspension. • 3) The suspension was subjected to freeze drying to obtain a freeze-dried powder. • 4) Appropriate amounts of freeze-dried powder (based on assay) were weighed and added to water to obtain a 200 mg/ml suspension. • 5) The mixture was stirred for 5 minutes. • 6) The final dosing formulation was a homogenous white cloudy suspension.
An aqueous nano-suspension of crystalline Compound 1 free form (crystalline Form C) in a 20 mg/mL PVP K30, 10 mg/mL poloxamer 188 and 50 mg/mL mannitol vehicle at a concentration of 200 mg/mL was prepared as follows: • 1) 20 mg/mL crystalline Compound 1 (Form C) was dispersed into a solution of 2 mg/mL PVP K30 1.0 mg/mL poloxamer 188 and 5 mg/mL mannitol • 2) The suspension was subjected to high pressure homogenizer until the size was around 1 μm. • 3) After particle size reduction, the suspension was subjected to freeze drying to obtain a freeze-dried powder. • 4) The freeze-dried powder was reconstituted with water to obtain a 100 mg/mL suspension. • 5) The suspension was wet milled (10:1 0.1 mm zirconium oxide milling beads: Compound 1) at 900 rpm for 600 minutes to reduce particle size to nanosized particles (Dv90<200 nm). • 6) This nanosuspension was subjected to freeze drying to obtain a freeze-dried powder. • 7) Appropriate amounts of freeze-dried powder (based on assay) were weighed and added to water to obtain a 200 mg/ml suspension. • 8) The mixture was stirred for 10 minutes. • 9) The final dosing formulation was a homogenous white cloudy suspension.
Male Sprague Dawley (SD) rats with ~230-250 g body weight (aged 6-8 weeks) were used for the pharmacokinetic study. The animals had free access to food and water. The Compound 1 solution described above was administered via sub-cutaneous or intra-muscular injection to each animal group (n=3) with a dosing volume of 0.1 mL/animal (~0.4 mL/kg) to achieve a 20 mg/animal dose (~80 mg/kg).
At each time point, approximately 150 μL whole blood was collected in a K2EDTA tube via the jugular vein. Blood samples were put on ice and centrifuged at 2000 g for 5 min to obtain a plasma sample within 15 minutes. Plasma samples were stored at approximately −70° C. until analyzed by LC-MS.

[3] = Example 13: Compound 1 IV PK study in monkey; assay type: in vivo, male cynomolgus monkeys; conditions: male, cynomolgus, plasma, 0.25 mg/kg, read-out: Monkey t1/2 (converted)
Description: The LC-MS methodology and conditions used to analyse Compound 1 in plasma samples from the intra-venous injection PK studies (Example 13) are described in Tables 5 to 7. A 0.25 mg/mL solution of Compound 1 in 10% DMSO, 10% Solutol HS15 and 80% Saline was prepared as follows: • 1) A stock solution of Compound 1 in DMSO was prepared. • 2) An equal volume of the Compound 1 stock solution and Solutol HS15 were combined and mixed. • 3) The above solution was diluted with normal saline to reach the target concentration. The final formulation was a clear solution. Male non-naïve Cyno Monkeys with were used for the monkey PK study. The animals had free access to food and water. The prepared solution was administered via intravenous injection to each animal group (n=3) to achieve a 0.25 mg/kg dose. At each time point, approximately 0.5 mL whole blood was collected into K2EDTA tubes. Blood samples were put on to ice and centrifuged at 2000 g for 5 min to obtain plasma sample within 15 minutes. Plasma samples were stored at approximately −70° C. until analyzed by LC-MS.

[4] = Injection site observation in Example 10-12 Compound 1 PK studies; assay type: in vivo, rat, monkey, dog; conditions: SC Compound 1 depot formulations, Examples 10-12, 3 species
Description: The Compound 1 suspension described above was administered via sub-cutaneous injection to each animal group (n=3) with a dosing volume of 3.33 mL/kg to achieve a 10 mg/kg dose.
Male non-naïve Cyno Monkeys with ~4-6 kg body weight were used for the monkey PK study. The animals had free access to food and water. The prepared suspension was administered via subcutaneous injection to each animal group (n=3) with a dosing volume of 3.33 mL/kg to achieve a 10 mg/kg dose.
Male non-naïve beagles with ~10 kg body weight were used for the dog PK study. The animals had free access to food and water. The prepared suspension was administered via subcutaneous injection to each animal group (n=3) with a dosing volume of 2 mL/kg to achieve a 10 mg/kg dose.

Plasma protein binding = assay type: in vitro ADME; conditions: read-out: free fraction of the total plasma concentration
plasma protein = conditions: cited from earlier work

| prolonged exposure out to (length of the study) [1] | prolonged exposure for (length of the study) ([2]; intramuscular) | prolonged exposure for (length of the study) ([2]; subcutaneous) | half-life [3] | fraction unbound (Plasma protein binding) | Structure (SMILES) | plasma levels, intramuscular compared with subcutaneous injection ([2]; 20 mg/animal, micro- and nano-suspensions) | plasma levels, nanosuspension compared with microsuspension ([2]; intramuscular, 20 mg/animal) | adverse reactions at the injection sites ([2]; intramuscular, micro- and nano-suspensions) | plasma levels, nanosuspension compared with microsuspension ([2]; subcutaneous, 20 mg/animal, throughout the test period) | adverse reactions at the injection sites ([2]; subcutaneous, micro- and nano-suspensions) | adverse reactions at the injection sites [4] | protein binding (plasma protein) |
| --- | --- | --- | --- | --- | --- | --- | --- | --- | --- | --- | --- | --- |
| at least 1392 hours | at least 600 hours | at least 600 hours | 49.6 h | – | Cc1nc(N2CCCN(c3ccc(-c4cc(F)ccc4F)cc3)C2=O)sc1S(N)(=O)=O [Compound 1, 2-(3-(2′,5′-difluoro-[1,1′-biphenyl]-4-yl)-2-oxotetrahydropyrimidin-1(2H)-yl)-4-methylthiazole-5-sulfonamide] | plasma levels were higher than those achieved by these formulations when administered by subcutaneous injection | nanosuspension provided higher plasma levels than the microsuspension | no adverse reactions observed | nanosuspension provided higher plasma levels than the microsuspension | no adverse reactions observed | no adverse reactions observed | – |
| – | – | – | – | 0.02 to 0.03 | Cc1nc(N(C)C(=O)Cc2ccc(-c3ccccn3)cc2)sc1S(N)(=O)=O [pritelivir, N-methyl-N-(4-methyl-5-sulfamoyl-1,3-thiazol-2-yl)-2-[4-(pyridin-2-yl)phenyl]acetamide] | – | – | – | – | – | – | 97-98% |
